Experimental data as given in article PMC2709466, “Heteroarotinoids with Anti-Cancer Activity Against Ovarian Cancer Cells” (The Open Medicinal Chemistry Journal, 2007).

Assays:
[1] = set-up: method as in PMID 9357524; details: mice; cited from earlier work
[2] = test system: A2780 ovarian cancer cells; assay: CellTiter 96 AQueous One Solution (MTS) cytotoxicity assay, 48 h, A2780; format: cell-based; details: for EC50: Homo sapiens, A2780 ovarian cancer cells, 48 hours of treatment, read-out: Potencies (EC50 values) of Growth Inhibition Activity, A2780 Ovarian Cancer; for Growth inhibition of ovarian cancer cultures (in words): A2780, Fig. 4; for Differential effects on cancer cells versus normal cells (therapeutic window): A2780 versus normal endometrial cells, Fig. 4C and Table 4
Procedure: (§1) The CellTiter 96 AQueous One Solution Cell Proliferation Assay (Promega) was used to measure living cells remaining after 48 hours of incubation with or without a range of concentrations for the heteroarotinoids. MTS [3-(4,5-dimethylthiazol-2-yl)-5-(3-carboxymethoxyphenyl)-2-(4-sulfophenyl) -2H-tetrazolium, inner salt], a novel tetrazolium compound, was added to each well and incubated for 4 hours, followed by addition of a solublization/stop solution. After overnight incubation, the optical density (OD) of each well was determined by measuring the absorbance at 540 nm using a Dynex MRX Revelation microtiter plate reader. Treatments were performed in triplicate, and the growth indices were derived by dividing the average OD540 of each treatment by the average OD540 of control cultures. The results represent the average and standard error of two to three independent experiments.
(§2) The A2780 ovarian cancer cells were cultured in RPMI media, and normal endometrial cells were cultured in MEM media. Both media contained fetal bovine serum (FBS), sodium pyruvate, and antibiotic/antimycotic. The normal endometrial cells were collected from a healthy premenopausal […] and used prior to passage as previously described.
The abilities of the new heteroarotinoids to inhibit cancer growth were compared by growing the ovarian cancer cell line (A2780) in the absence and presence of various concentrations of the different compounds. The amount of cells remaining after 48 hours of treatment was measured using a cytotoxicity assay. The optical density (OD) endpoint of the assay represents the number of cells remaining after 48 hours of treatment. The Growth Index was derived by dividing the OD of treated cultures by the OD of untreated cultures. The results are presented in graphic form where Growth Index on the y axis represents the number of cells remaining after 48 hours of treatment relative to untreated controls, and the x axis represents the concentration of drug added. The lower the Growth Index, the greater the growth inhibition.

normal endometrial cells = assay: CellTiter 96 AQueous One Solution (MTS) cytotoxicity assay, 48 h, normal cells; format: cell-based; details: 48 hours of treatment, read-out: Potencies (EC50 values) of Growth Inhibition Activity, Normal Endometrium
Procedure: as §1, §2

cancerous cell phenotype = test system: cancerous cell phenotype; set-up: method as in PMID 11287445; details: at 3 μM; cited from earlier work
[3] = preclinical testing; cited from earlier work
[4] = set-up: method as in PMID 16534614; details: preliminary evidence; cited from earlier work
[5] = set-up: method as in PMID 16534614; details: cited from earlier work
A2780 cells = assay: Annexin-V-FITC / propidium iodide apoptosis assay (flow cytometry); format: cell-based; details: 10 µM, 24 hours
Procedure: Cells were plated in 6-well tissue culture dishes at a cell density of 1 x 10^5 cells/well. After allowing cells to adhere to the dishes overnight, parallel cultures were treated with varying concentrations of heteroarotinoids or the same volume of DMSO solvent for 24 hours. The Vybrant™ Apoptosis Assay Kit #3 (Molecular Probes) was then utilized to measure apoptosis and necrosis. Tissue culture medium in each well was collected to harvest cells that had already lifted off the tissue culture plate. These were combined with adherent cells that were harvested by trypsinization. The cells were pelleted by centrifugation and resuspended in 100 μL of 1X annexin-binding buffer, and then they were incubated with 5 µl of annexin V conjugated to fluorescein (Annexin-V-FITC) and 1 µL of 100 µg/mL propidium iodide (PI) for 15 minutes at room temperature. The solution was then mixed gently with an additional 400 µl of 1X annexin-binding buffer, and the samples were evaluated with a FACSCalibur (Becton Dickinson) automated benchtop flow cytometer at an excitation wavelength of 488 nm with observation wavelengths of 530 nm and 575 nm. Flow cytometry data were quantified using Summit for MoFlo Acquisition and Sort Control Software (Cytomation, Inc). […]

Row | melting point [°C] | SMILES | EC50 [2] [µM] | EC50 (normal endometrial cells) [µM] | Growth inhibition of ovarian cancer cultures (in words) [2] | Differential effects on cancer cells versus normal cells (therapeutic window) [2] | also measured
1 | – | CC1=C(/C=C/C(C)=C/C=C/C(C)=C/C(=O)O)C(C)(C)CCC1 [Compound 1, trans-retinoic acid] | – | – | – | – | maximum tolerated dose (MTD) [1]: 10 mg/kg/day
2 | 113 to 115 | Cc1ccc2cc(NC(=S)Nc3ccc([N+](=O)[O-])cc3)ccc2n1 [Compound 9a, 1-(2-Methylquinolin-6-yl)-3-(4-nitrophenyl) thiourea] | 5 | > 1000 | – | – | –
3 | 241 to 242 | Cc1ccc2cc(NC(=O)Nc3ccc([N+](=O)[O-])cc3)ccc2n1 [Compound 9b, 1-(2-Methylquinolin-6-yl)-3-(4-nitrophenyl)urea] | 7.86 | > 1000 | – | – | –
4 | – | CCOC(=O)c1ccc(NC(=O)Nc2ccc3nc(C)ccc3c2)cc1 [Compound 9c, Ethyl 4-[3-(2-Methylquinolin-6-yl)ureido]benzoate] | 4.88 | > 1000 | – | – | –
5 | – | CC1(C)CC(C)(C)c2cc(NC(=S)Nc3ccc([N+](=O)[O-])cc3)ccc2S1 [Compound 10a, [4-nitrophenylamino][(2,2,4,4-tetramethylthiochroman-6-yl)amino]methane-1-thione] | 1.72 | 2.97 | micromolar range | differential effects | Effects on differentiation (cancerous cell phenotype): normalization of the cancerous cell phenotype and induction of orderly tissue architecture; Toxicity, skin irritancy, teratogenicity [3]: without evidence of toxicity, skin irritancy, or teratogenicity; Concentrations achieved and maintained in animal models [4]: micromolar concentrations; Binding to proteins in mouse plasma [5]: binds strongly
6 | – | CC1(C)CC(C)(C)c2cc(NC(=O)Nc3ccc([N+](=O)[O-])cc3)ccc2S1 [Compound 10c, 1-(2,2,4,4-Tetramethylthiochroman-6-yl)-3-(4-nitrophenyl)urea] | 1.02 | 2.29 | micromolar range | differential effects | Induction of apoptosis (Annexin-V-FITC staining) (A2780 cells): induces positive staining for Annexin-V-FITC; Degree of apoptosis induced, 10c compared with 10a (A2780 cells; Fig. 5C): slightly higher
